Reference: US6060038A, “Radiolabeled farnesyl-protein transferase inhibitors” (Merck & Co., Inc., priority 1998, dated 2000)
Where a name gives a salt, the structure may show the parent alone.

Experiments:
[1] = system: FPTase; test: PET Imaging in Dogs: block of [^11 C]-Compound 1 radiotracer binding by infused FTI; format: in vivo, beagle dogs; conditions: 10 mpk infused over 5 minutes, radiotracer [^11 C]-Compound 1
Experimental: Kinetics of enzyme occupancy by an unlabeled FPTase inhibitor (test compound) is determined by this assay. Thus, FVB mice are injected the test compound at either 40 mpk or 10 mpk subcutaneously (0.1 mls). Thirty minutes prior to euthanasia, 3 nCi of tritiated farnesyl protein transferase inhibitor (radiotracer) was injected i.p. (0.2 mls 10% EtOH in 0.9% saline). Uninhibited binding of the radiotracer is determined by injection of the radiotracer in mice which have not received injection of the test compound. The mice are euthanized either 2 hours of 14 hours after injection of the test compound and lung, spleen, pancrease and blood are removed and processed as described above. Data are plotted as %-dose/g of tissue (wet weight). […]
Oxygen saturation of circulating blood is measured with a pulse oximeter (Nellcor Inc., Hayward, Calif.) placed on the tongue of the animal. […] EKG, heart rate, and core temperature are monitored continuously. […]
For uninhibited distribution of radiotracer, regions of interest (ROIs) are drawn on the reconstructed image includes the kidney cortex and a region of liver which is removed from the gallbladder images. […] Data are expressed as radioactivity per unit time per unit volume (μCi/cc/mCi injected dose). […]

[2] = Radiochemical decomposition of stored radiotracer samples; format: physicochemical; conditions: stored for up to 90 minutes in sterile glass vial; saline/sodium bicarbonate
Experimental: The container used for the drug is described above. It consists of a sterile, pyrogen free glass vial with a crimp-sealed aluminum cap surrounding a rubber stopper. Samples of the radiotracer have been stored for up to 90 minutes and analyzed for radiochemical decomposition.

SMILES: CCCC[C@H]1CN(c2cccc(C)c2C)C(=O)CN1Cc1cncn1Cc1ccc(C#N)cc1.O=C(O)C(F)(F)F.O=C(O)C(F)(F)F [Compound 3, 5(S)-n-Butyl-4-[1-(4-cyanobenzyl)imidazol-5-ylmethyl]-1-(2,3-dimethylphenyl)piperazin-2-one ditrifluoroacetic acid salt]
- block of radiotracer binding [1]: completely block radiotracer binding

SMILES: [11CH3]S(=O)(=O)CC[C@H]1CN(c2cc(I)cc(CF)c2)C(=O)CN1Cc1cncn1Cc1ccc(C#N)cc1 [[^11 C]-Compound 1, (S)-1-(3-iodo-5-fluoromethylphenyl)-4-[1-(4-cyanobenzyl)-5-imidazolylmethyl]-5-[2-(^11 C-methanesulfonyl)ethyl]-2-piperazinone dihydrochloride]
- radiochemical decomposition on storage [2]: No decomposition has been observed
